Data on seven compounds can be found in patent US9695155B2, “Herbicidal substituted pyrimidinyloxy benzene compounds” (E. I. DU PONT DE NEMOURS AND COMPANY, priority 2013, dated 2017).

Structures are written as SMILES.

Assay [1] relates to horseweed. Kind of assay: Test E postemergence. It counts as in vivo, Conyza canadensis. An excerpt:
Seeds of plant species selected from corn (Zea mays), soybean (Glycine max), velvetleaf (Abutilon theophrasti), lambsquarters (Chenopodium album), wild poinsettia (Euphorbia heterophylla), palmer pigweed (Amaranthus palmeri), waterhemp (common waterhemp, Amaranthus rudis), surinam grass (Brachiaria decumbens), large (Lg) crabgrass (Digitaria sanguinalis), Brazilian crabgrass (Digitaria horizontalis), fall panicum (Panicum dichotomiflorum), giant foxtail (Setaria faberii), green foxtail (Setaria viridis), goosegrass (Eleusine indica), johnsongrass (Sorghum halepense), ragweed (common ragweed, Ambrosia elatior), barnyardgrass (Echinochloa crus-galli), sandbur (southern sandbur, Cenchrus echinatus), arrowleaf sida (Sida rhombifolia), Italian ryegrass (Lolium multiflorum), dayflower (Virginia (VA) dayflower, Commelina virginica), field bindweed (Convolvulus arvensis), morningglory (Ipomoea coccinea), nightshade (eastern black nightshade, Solanum ptycanthum), kochia (Kochia scoparia), yellow nutsedge (Cyperus esculentus), cocklebur (common cocklebur, Xanthium strumarium), smartweed (ladysthumb smartweed, and hairy beggarticks (Bidens pilosa), were planted into a silt loam soil and treated preemergence with test chemicals formulated in a non-phytotoxic solvent mixture which included a surfactant.
At the same time, plants from these crop and weed species and also horseweed (Canada horseweed, Conyza canadensis), waterhemp_RES1, (ALS & Triazine resistant common waterhemp, Amaranthus rudis), and waterhemp_RES2, (ALS & HPPD resistant common waterhemp, Amaranthus rudis) were planted in pots containing Redi-Earth® planting medium (Scotts Company, 14111 Scottslawn Road, Marysville, Ohio 43041) comprising spaghnum peat moss, vermiculite, wetting agent and starter nutrients were treated with postemergence applications of test chemicals formulated in the same manner. Plants ranged in height from 2 to 18 cm for postemergence treatments (1- to 4-leaf stage). Treated plants and controls were maintained in a greenhouse for 14 to 21 days, after which time all species were compared to controls and visually evaluated. Plant response ratings, summarized in Table E, are based on a scale of 0 to 100 where 0 is no effect and 100 is complete control. A dash (-) response means no test result.

Assay [2] relates to cocklebur. Kind of assay: Test C postemergence. It counts as in vivo, Xanthium strumarium. The conditions noted are these: for Plant response rating (0 to 100), Cocklebur: postemergence; for Plant response rating, Cocklebur: Postemergence, scale 0 to 100 (0 no effect, 100 complete control). An excerpt: (§1) Seeds of plant species selected from blackgrass (Alopecurus myosuroides), Italian ryegrass (Lolium multiflorum), wheat, winter (winter wheat, Triticum aestivum), galium (catchweed bedstraw, Galium aparine), corn (Zea mays), large (Lg) crabgrass (Digitaria sanguinalis), giant foxtail (Setaria faberii), johnsongrass (Sorghum halepense), lambsquarters (Chenopodium album), morningglory (Ipomoea coccinea), yellow nutsedge (Cyperus esculentus), pigweed (Amaranthus retroflexus), ragweed (common ragweed, Ambrosia elatior), soybean (Glycine max), barnyardgrass (Echinochloa crus-galli), oilseed rape (Brassica napus), waterhemp (common waterhemp, Amaranthus rudis), kochia (Kochia scoparia), wild oat (Avena fatua), surinam grass (Brachiaria decumbens), foxtail, green (green foxtail, Setaria viridis), goosegrass (Eleusine indica), bromegrass, downy (downy bromegrass, Bromus tectorum), nightshade (eastern black nightshade, Solanum ptycanthum), cocklebur (common cocklebur, Xanthium strumarium), cupgrass, woolly (woolly cupgrass, Eriochloa villosa), bermudagrass (Cynodon dactylon), sunflower, (common oilseed sunflower, Helianthus annuus), Russian thistle (Salsola kali), and velvetleaf (Abutilon theophrasti) were planted into a blend of loam soil and sand and treated preemergence with test chemicals formulated in a non-phytotoxic solvent mixture which included a surfactant.
(§2) At the same time, plants selected from these crop and weed species and also barley, winter (winter barley, Hordeum vulgare), windgrass (Apera spica-venti), chickweed (common chickweed, Stellaria media), deadnettle (henbit deadnettle, Lamium amplexicaule), and canarygrass (littleseed canarygrass, Phalaris minor) were planted in pots containing Redi-Earth® planting medium (Scotts Company, 14111 Scottslawn Road, Marysville, Ohio 43041) comprising spaghnum peat moss, vermiculite, wetting agent and starter nutrients and treated with postemergence applications of test chemicals formulated in the same manner. Plants ranged in height from 2 to 18 cm (1- to 4-leaf stage) for postemergence treatments. Treated plants and controls were maintained in a greenhouse for 13 to 15 days, after which time all species were compared to controls and visually evaluated. Plant response ratings, summarized in Table C, are based on a scale of 0 to 100 where 0 is no effect and 100 is complete control. A dash (-) response means no test result.

Assay [3] concerns cupgrass, woolly. Kind of assay: Test C postemergence. The conditions noted are these: for Plant response rating (0 to 100), Cupgrass, Woolly: postemergence; for Plant response rating, Cupgrass, Woolly: Postemergence, scale 0 to 100 (0 no effect, 100 complete control). The format is in vivo, Eriochloa villosa.
Excerpt: as §1, §2

Assay [4] deals with deadnettle. Kind of assay: Test C postemergence. The conditions noted are these: for Plant response rating (0 to 100), Deadnettle: postemergence; for Plant response rating, Deadnettle: Postemergence, scale 0 to 100 (0 no effect, 100 complete control). The format is in vivo, Lamium amplexicaule.
Excerpt: as §1, §2

Assay [5] relates to winter wheat. Kind of assay: Test D preemergence. It counts as in vivo, Triticum aestivum. The conditions noted are these: for plant injury at 31 g/ha / plant injury at 16 g/ha: read-out: Plant response rating, Wheat, Winter; for plant injury at 62 g/ha: 62 g ai/ha. The method, boiled down: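 Solvent/surfactant formulations are sprayed pre (silt loam) or post (1–4 leaf plants, 2–18 cm). Plants stay 7–21 days in controlled conditions before a visual 0–100 score is given.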

For assay [6], the system named is Russian thistle. Kind of assay: Test D preemergence. It counts as in vivo, Salsola kali. Further details: key: 0 = no effect, 100 = complete control. An excerpt: (§3) Seeds of plant species selected from bluegrass (annual bluegrass, Poa annua), blackgrass (Alopecurus myosuroides), canarygrass (littleseed canarygrass, Phalaris minor), chickweed (common chickweed, Stellaria media), galium (catchweed bedstraw, Galium aparine), bromegrass, downy (downy bromegrass, Bromus tectorum), field poppy (Papaver rhoeas), field violet (Viola arvensis), green foxtail (Setaria viridis), deadnettle (henbit deadnettle, Lamium amplexicaule), Italian ryegrass (Lolium multiflorum), kochia (Kochia scoparia), lambsquarters (Chenopodium album), oilseed rape (Brassica napus), pigweed (Amaranthus retroflexus), chamomile (scentless chamomile, Matricaria inodora), Russian thistle (Salsola kali), speedwell (bird's-eye speedwell, Veronica persica), spring barley (Hordeum vulgare), spring wheat (Triticum aestivum), wild buckwheat (Polygonum convolvulus), wild mustard (Sinapis arvensis), wild oat (Avena fatua), wild radish (Raphanus raphanistrum), windgrass (Apera spica-venti), winter barley (Hordeum vulgare), and winter wheat (Triticum aestivum) were planted into a silt loam soil and treated preemergence with test chemicals formulated in a non-phytotoxic solvent mixture which included a surfactant.
(§4) At the same time, these species were planted in pots containing Redi-Earth® planting medium (Scotts Company, 14111 Scottslawn Road, Marysville, Ohio 43041) comprising spaghnum peat moss, vermiculite, wetting agent and starter nutrients and treated with postemergence applications of the test chemicals formulated in the same manner. Plants ranged in height from 2 to 18 cm (1- to 4-leaf stage). Treated plants and controls were maintained in a controlled growth environment for 7 to 21 days after which time all species were compared to controls and visually evaluated. Plant response ratings, summarized in Table D, are based on a scale of 0 to 100 where 0 is no effect and 100 is complete control. A dash (-) response means no test result.

The test system of assay [7] is Russian thistle. Kind of assay: Test D postemergence. It counts as in vivo, Salsola kali.
Excerpt: as §3, §4

[8] abbreviates: Postemergence, 31 g ai/ha, scale 0 to 100.
Setting [9] is: Postemergence, 62 g ai/ha, scale 0 to 100.
Where [10] appears, read: Postemergence, 125 g ai/ha, scale 0 to 100.
Setting [11] is: postemergence, 16 g ai/ha, scale 0 to 100, 0 no effect, 100 complete control.
The mark [12] stands for this setting: Triticum aestivum, pre-emergence, 31 g ai/ha, scale 0 (no effect) to 100 (complete control).
[13] abbreviates: Triticum aestivum, pre-emergence, scale 0-100, read-out: Plant response rating, Wheat, Winter.
Where [14] appears, read: Triticum aestivum, pre-emergence, 125 g ai/ha, scale 0-100, read-out: Plant response rating, Wheat, Winter.
Where [15] appears, read: 16 g ai/ha, scale 0 (no effect) to 100 (complete control).
Where [16] appears, read: 31 g ai/ha, scale 0 (no effect) to 100 (complete control).
The mark [17] stands for this setting: 31 g ai/ha, scale 0 to 100 (0 no effect, 100 complete control).
The mark [18] stands for this setting: 62 g ai/ha, scale 0 to 100 (0 no effect, 100 complete control).
Setting [19] is: 125 g ai/ha, scale 0 to 100 (0 no effect, 100 complete control).
[20] abbreviates: Triticum aestivum, pre-emergence, 16 g ai/ha, scale 0 (no effect) to 100 (complete control).

On to `Clc1cnc(Oc2cccc(Cl)c2-n2cc(I)cn2)nc1` [Compound 181], for which the “Plant response rating, Horseweed” value in assay [1] (setting [8]) is reported as 0; in assay [1] (setting [9]), 5; in assay [1] (setting [10]), 5; in assay [1] (setting [11]) it was 0.
Turning to `Clc1cnn(-c2ccccc2Oc2ncc(Br)cn2)c1` [Compound 5, 5-bromo-2-[2-(4-chloro-1H-pyrazol-1-yl)phenoxy]pyrimidine], the “Plant response rating (0 to 100), Cocklebur” value in assay [2] (125 g ai/ha) is reported as 50; in assay [2] (250 g ai/ha) it was 65. The “Plant response rating, Cocklebur” value in assay [2] (31 g ai/ha, 13 to 15 days) stood at 25; in assay [2] (62 g ai/ha), 50. In addition, the entries for the “Plant response rating (0 to 100), Cupgrass, Woolly” value in assay [3] (125 g ai/ha) and in assay [3] (250 g ai/ha) were 10 and 30, respectively. The “Plant response rating, Cupgrass, Woolly” value in assay [3] (31 g ai/ha, 13 to 15 days) stood at 0; in assay [3] (62 g ai/ha), 10. Besides, the “Plant response rating (0 to 100), Deadnettle” value in assay [4] (125 g ai/ha) and in assay [4] (250 g ai/ha) was 90 in each case. Besides, the “Plant response rating, Deadnettle” value is 50 in assay [4] (31 g ai/ha, 13 to 15 days) and 50 in assay [4] (62 g ai/ha).
As to `N#Cc1cccc(Oc2ncc(Cl)cn2)c1-n1cc(Br)cn1` [Compound 52, 2-(4-bromo-1H-pyrazol-1-yl)-3-[(5-chloro-2-pyrimidinyl)oxy]benzonitrile], the plant injury at 31 g/ha in assay [5] (setting [12]) is 0%. Also, the plant injury at 62 g/ha in assay [5] (setting [13]) worked out at 0%. Besides, the plant injury at 125 g/ha in assay [5] (setting [14]) came out at 25%. Further, in assay [5] (Triticum aestivum, pre-emergence, 250 g ai/ha, scale 0-100, read-out: Plant response rating, Wheat, Winter), the plant injury at 250 g/ha was 35%.
For `FCc1cccc(Oc2ncc(Cl)cn2)c1-n1cc(I)cn1` [Compound 245], the “Plant response rating, Russian Thistle” value is 5 in assay [6] (setting [15]); 10 in assay [6] (setting [16]); 70 in assay [6] (125 g ai/ha, scale 0-100); 55 in assay [7] (16 g ai/ha, scale 0-100); 75 in assay [7] (setting [17]); 70 in assay [7] (setting [18]). Also, the “Plant response rating, Russian Thistle” value in assay [7] (setting [19]) stood at 80. Also, the “Plant response rating, Wheat, Winter” value in assay [5] (setting [15]) was found to be 10; in assay [5] (setting [16]), 15; in assay [5] (125 g ai/ha, scale 0-100) it was 30.
Take `N#Cc1cccc(Oc2ncc(Cl)cn2)c1-n1cc(OCC(F)(F)F)cn1` [Compound 274, 3-[(5-chloro-2-pyrimidinyl)oxy]-2-[4-(2,2,2-trifluoroethoxy)-1H-pyrazol-1-yl]benzonitrile]: the plant injury at 16 g/ha in assay [5] (setting [20]) was 0%. The plant injury at 31 g/ha in assay [5] (setting [12]) was found to be 0%. The plant injury at 125 g/ha in assay [5] (setting [14]) turned out to be 35%.
In the case of `Fc1cccc(Oc2ncc(Cl)cn2)c1-n1cc(C(F)F)nn1` [Compound 141, 5-chloro-2-[2-[4-(difluoromethyl)-1H-1,2,3-triazol-1-yl]-3-fluorophenoxy]pyrimidine], the “Plant response rating, Russian Thistle” value in assay [6] (setting [15]) is recorded as 15; in assay [6] (setting [16]) it was 50; in assay [6] (62 g ai/ha, scale 0-100), 75; in assay [6] (125 g ai/ha, scale 0-100), 100; in assay [7] (16 g ai/ha, scale 0-100), 40; in assay [7] (setting [17]) it was 40. The results for the “Plant response rating, Russian Thistle” value in assay [7] (setting [18]) and in assay [7] (setting [19]) were 85 and 95, respectively. For the same compound, the plant injury at 16 g/ha in assay [5] (setting [20]) turned out to be 15%. The plant injury at 31 g/ha in assay [5] (setting [12]) came out at 20%. The plant injury at 62 g/ha in assay [5] (setting [13]) is 60%. Besides, in assay [5] (setting [14]), the plant injury at 125 g/ha is 60%.
On to `N#Cc1cccc(Oc2ncc(F)cn2)c1-n1cc(C(F)(F)F)cn1` [Compound 79, 3-[(5-fluoro-2-pyrimidinyl)oxy]-2-[4-(trifluoromethyl)-1H-pyrazol-1-yl]benzonitrile], for which the “Plant response rating, Horseweed” value in assay [1] (setting [8]) is 0; in assay [1] (setting [9]), 20; in assay [1] (setting [10]), 30; in assay [1] (setting [11]) it was 0.
